Results from ChEMBL document CHEMBL1122946, “Folate antagonists. 21. Synthesis and antimalarial properties of 2,4-diamino-6-(benzylamino)pyrido[3,2-d]pyrimidines” (1985).

Legend:
Mus musculus [1] = assay: Mean survival time against trophozoite induced Plasmodium berghei in mice minus control was evaluated at a dose 640 mg/kg; 10 survived out of 10 animals at 60 days postinjection.; format: functional, organism-based; parameters: dose 640 mg/kg
Mus musculus [2] = assay: Mean survival time against trophozoite induced Plasmodium berghei in mice minus control was evaluated at a dose 2.5 mg/kg.; format: functional
Mus musculus [3] = assay: Mean survival time against trophozoite induced Plasmodium berghei in mice minus control was evaluated at a dose 1.25 mg/kg.; format: functional
Mus musculus [4] = assay: Mean survival time against trophozoite induced Plasmodium berghei in mice minus control was evaluated at a dose 80 mg/kg; 5 survived out of 5 animals at 60 days postinjection.; format: functional, organism-based; parameters: dose 80 mg/kg
Mus musculus [5] = assay: Mean survival time against trophozoite induced Plasmodium berghei in mice minus control was evaluated at a dose 320 mg/kg; 5 survived out of 10 animals at 60 days postinjection.; format: functional, organism-based; parameters: dose 320 mg/kg
Mus musculus [6] = assay: Mean survival time against trophozoite induced Plasmodium berghei in mice minus control was evaluated at a dose 10 mg/kg.; format: functional
Mus musculus [7] = assay: Mean survival time against trophozoite induced Plasmodium berghei in mice minus control was evaluated at a dose 160 mg/kg; 10 survived out of 10 animals at 60 days postinjection.; format: functional, organism-based; parameters: dose 160 mg/kg
Mus musculus [8] = assay: Mean survival time against trophozoite induced Plasmodium berghei in mice minus control was evaluated at a dose 20 mg/kg; 4 survived out of 10 animals at 60 days postinjection.; format: functional, organism-based; parameters: dose 20 mg/kg
Mus musculus [9] = assay: Mean survival time against trophozoite induced Plasmodium berghei in mice minus control was evaluated at a dose 5 mg/kg.; format: functional
Mus musculus [10] = assay: Mean survival time against trophozoite induced Plasmodium berghei in mice minus control was evaluated at a dose 40 mg/kg; 6 survived out of 15 animals at 60 days postinjection.; format: functional, organism-based; parameters: dose 40 mg/kg
Mus musculus [11] = assay: Mean survival time against trophozoite induced Plasmodium berghei in mice minus control was evaluated at a dose 640 mg/kg.; format: functional
Mus musculus [12] = assay: Mean survival time against trophozoite induced Plasmodium berghei in mice minus control was evaluated at a dose 160 mg/kg.; format: functional
Mus musculus [13] = assay: Mean survival time against trophozoite induced Plasmodium berghei in mice minus control was evaluated at a dose 40 mg/kg.; format: functional
Mus musculus [14] = assay: Mean survival time against trophozoite induced Plasmodium berghei in mice minus control was evaluated at a dose 20 mg/kg.; format: functional
Mus musculus [15] = assay: Mean survival time against trophozoite induced Plasmodium berghei in mice minus control was evaluated at a dose 80 mg/kg; 1 survived out of 5 animals at 60 days postinjection; format: functional, organism-based; parameters: dose 80 mg/kg
Mus musculus [16] = assay: Mean survival time against trophozoite induced Plasmodium berghei in mice minus control was evaluated at a dose 320 mg/kg; 3 survived out of 5 animals at 60 days postinjection; format: functional, organism-based; parameters: dose 320 mg/kg
Mus musculus [17] = assay: Mean survival time against trophozoite induced Plasmodium berghei in mice minus control was evaluated at a dose 640 mg/kg; 9 survived out of 15 animals at 60 days postinjection.; format: functional, organism-based; parameters: dose 640 mg/kg
Mus musculus [18] = assay: Mean survival time against trophozoite induced Plasmodium berghei in mice minus control was evaluated at a dose 160 mg/kg; 6 survived out of 15 animals at 60 days postinjection; format: functional, organism-based; parameters: dose 160 mg/kg
Mus musculus [19] = assay: Mean survival time against trophozoite induced Plasmodium berghei in mice minus control was evaluated at a dose 80 mg/kg.; format: functional
Mus musculus [20] = assay: Mean survival time against trophozoite induced Plasmodium berghei in mice minus control was evaluated at a dose 160 mg/kg; 4 survived out of 10 animals at 60 days postinjection.; format: functional, organism-based; parameters: dose 160 mg/kg
Mus musculus [21] = assay: Mean survival time against trophozoite induced Plasmodium berghei in mice minus control was evaluated at a dose 320 mg/kg; 2 survived out of 5 animals at 60 days postinjection.; format: functional, organism-based; parameters: dose 320 mg/kg
Mus musculus [22] = assay: Mean survival time against trophozoite induced Plasmodium berghei in mice minus control was evaluated at a dose 640 mg/kg; 7 survived out of 10 animals at 60 days postinjection.; format: functional, organism-based; parameters: dose 640 mg/kg
Mus musculus [23] = assay: Mean survival time against trophozoite induced Plasmodium berghei in mice minus control was evaluated at a dose 80 mg/kg; format: functional
Mus musculus [24] = assay: Mean survival time against trophozoite induced Plasmodium berghei in mice minus control was evaluated at a dose 320 mg/kg; 10 survived out of 10 animals at 60 days postinjection.; format: functional, organism-based; parameters: dose 320 mg/kg
Mus musculus [25] = assay: Mean survival time against trophozoite induced Plasmodium berghei in mice minus control was evaluated at a dose 160 mg/kg; 5 survived out of 5 animals at 60 days postinjection.; format: functional, organism-based; parameters: dose 160 mg/kg
Mus musculus [26] = assay: Mean survival time against trophozoite induced Plasmodium berghei in mice minus control was evaluated at a dose 80 mg/kg; 4 survived out of 5 animals at 60 days postinjection.; format: functional, organism-based; parameters: dose 80 mg/kg
Mus musculus [27] = assay: Mean survival time against trophozoite induced Plasmodium berghei in mice minus control was evaluated at a dose 40 mg/kg; 8 survived out of 10 animals at 60 days postinjection.; format: functional, organism-based; parameters: dose 40 mg/kg
Mus musculus [28] = assay: Mean survival time against trophozoite induced Plasmodium berghei in mice minus control was evaluated at a dose 320 mg/kg.; format: functional
Mus musculus [29] = assay: Mean survival time against trophozoite induced Plasmodium berghei in mice minus control was evaluated at a dose 160 mg/kg; 1 survived out of 5 animals at 60 days postinjection.; format: functional, organism-based; parameters: dose 160 mg/kg
Mus musculus [30] = assay: Mean survival time against trophozoite induced Plasmodium berghei in mice minus control was evaluated at a dose 40 mg/kg; 15 survived out of 15 animals at 60 days postinjection.; format: functional, organism-based; parameters: dose 40 mg/kg
Mus musculus [31] = assay: Mean survival time against trophozoite induced Plasmodium berghei in mice minus control was evaluated at a dose 640 mg/kg; 5 survived out of 5 animals at 60 days postinjection.; format: functional, organism-based; parameters: dose 640 mg/kg
Mus musculus [32] = assay: Mean survival time against trophozoite induced Plasmodium berghei in mice minus control was evaluated at a dose 80 mg/kg; 10 survived out of 10 animals at 60 days postinjection.; format: functional, organism-based; parameters: dose 80 mg/kg
Mus musculus [33] = assay: Mean survival time against trophozoite induced Plasmodium berghei in mice minus control was evaluated at a dose 20 mg/kg; 8 survived out of 15 animals at 60 days postinjection.; format: functional, organism-based; parameters: dose 20 mg/kg
Mus musculus [34] = assay: Mean survival time against trophozoite induced Plasmodium berghei in mice minus control was evaluated at a dose 320 mg/kg; 5 survived out of 5 animals at 60 days postinjection.; format: functional, organism-based; parameters: dose 320 mg/kg
Mus musculus [35] = assay: Mean survival time against trophozoite induced Plasmodium berghei in mice minus control was evaluated at a dose 20 mg/kg; 8 survived out of 10 animals at 60 days postinjection.; format: functional, organism-based; parameters: dose 20 mg/kg
Mus musculus [36] = assay: Mean survival time against trophozoite induced Plasmodium berghei in mice minus control was evaluated at a dose 40 mg/kg; 10 survived out of 10 animals at 60 days postinjection.; format: functional, organism-based; parameters: dose 40 mg/kg

How did the “Delta MST” value (Mus musculus [1]) turn out when Nc1nc(N)c2nc(N(C=O)Cc3ccc(Cl)c(Cl)c3)ccc2n1 was run?
Its value is “Survivals 10/10”.

And the “Delta MST” value (Mus musculus [2])?
Its value is 5.3 days.

And the “Delta MST” value (Mus musculus [3])?
Its value is 1.9 days.

What about the “Delta MST” value (Mus musculus [4]) of the same molecule?
Its value is “Survivals 5/5”.

And the “Delta MST” value (Mus musculus [5])?
Its value is “Survivals 5/10”.

What about the “Delta MST” value (Mus musculus [6]) of the same molecule?
The value was 16.3 days.

And the “Delta MST” value (Mus musculus [7])?
The value was “Survivals 10/10”.

What about the “Delta MST” value (Mus musculus [8]) of the same molecule?
The value was “Survivals 4/10”.

And the “Delta MST” value (Mus musculus [9])?
The value was 14.1 days.

And the “Delta MST” value (Mus musculus [10])?
The value was “Survivals 6/15”.

For CC(c1ccc(Cl)c(Cl)c1)N(C)c1ccc2nc(N)nc(N)c2n1 (configuration not stated), which “Delta MST” value (Mus musculus [11]) is on record?
The value was 3.9 days.

What about the “Delta MST” value (Mus musculus [12]) of the same molecule?
The value was 2.3 days.

And the “Delta MST” value (Mus musculus [13])?
The value was 1.7 days.

What does the source list for CN(Cc1cccc(Br)c1)c1ccc2nc(N)nc(N)c2n1?
Delta MST (Mus musculus [14]): 9.1 days; Delta MST (Mus musculus [15]): Survivals 1/5; Delta MST (Mus musculus [13]): 9.8 days; Delta MST (Mus musculus [16]): Survivals 3/5; Delta MST (Mus musculus [17]): Survivals 9/15; Delta MST (Mus musculus [18]): Survivals 6/15

Which “Delta MST” value (Mus musculus [19]) does the source give for Nc1nc(N)c2nc(N3CCCCC3Cc3ccc(Cl)cc3)ccc2n1 (configuration not stated) here?
The value was 9.1 days.

What about the “Delta MST” value (Mus musculus [14]) of the same molecule?
Its value is 2.9 days.

And the “Delta MST” value (Mus musculus [20])?
The value was “Survivals 4/10”.

What about the “Delta MST” value (Mus musculus [13]) of the same molecule?
Its value is 5.1 days.

What about the “Delta MST” value (Mus musculus [21]) of the same molecule?
The value was “Survivals 2/5”.

And the “Delta MST” value (Mus musculus [22])?
Its value is “Survivals 7/10”.

How did the “Delta MST” value (Mus musculus [14]) turn out when Nc1nc(N)c2nc(N3CCCCC3Cc3ccccc3)ccc2n1 (configuration not stated) was run?
The value was 3 days.

And the “Delta MST” value (Mus musculus [23])?
Its value is 8.2 days.

What about the “Delta MST” value (Mus musculus [24]) of the same molecule?
Its value is “Survivals 10/10”.

What about the “Delta MST” value (Mus musculus [13]) of the same molecule?
Its value is 4.9 days.

And the “Delta MST” value (Mus musculus [25])?
The value was “Survivals 5/5”.

How did the “Delta MST” value (Mus musculus [14]) turn out when CN(Cc1ccc(C(F)(F)F)cc1)c1ccc2nc(N)nc(N)c2n1 was run?
The value was 8.1 days.

And the “Delta MST” value (Mus musculus [26])?
Its value is “Survivals 4/5”.

What about the “Delta MST” value (Mus musculus [27]) of the same molecule?
Its value is “Survivals 8/10”.

And the “Delta MST” value (Mus musculus [28])?
The value was 2.9 days.

What about the “Delta MST” value (Mus musculus [11]) of the same molecule?
Its value is 2.5 days.

And the “Delta MST” value (Mus musculus [29])?
Its value is “Survivals 1/5”.

What does the source list for CN(Cc1ccc(Cl)c(Cl)c1)c1ccc2nc(N)nc(N)c2c1?
Delta MST (Mus musculus [30]): Survivals 15/15; Delta MST (Mus musculus [24]): Survivals 10/10; Delta MST (Mus musculus [31]): Survivals 5/5; Delta MST (Mus musculus [6]): 8.7 days; Delta MST (Mus musculus [7]): Survivals 10/10; Delta MST (Mus musculus [32]): Survivals 10/10; Delta MST (Mus musculus [33]): Survivals 8/15

Which results are given for CN(Cc1ccc(Cl)c(Cl)c1)c1ccc2nc(N)nc(N)c2n1?
Delta MST (Mus musculus [2]): 4.3 days; Delta MST (Mus musculus [3]): 2.9 days; Delta MST (Mus musculus [34]): Survivals 5/5; Delta MST (Mus musculus [4]): Survivals 5/5; Delta MST (Mus musculus [6]): 11.9 days; Delta MST (Mus musculus [25]): Survivals 5/5; Delta MST (Mus musculus [35]): Survivals 8/10; Delta MST (Mus musculus [9]): 9.1 days; Delta MST (Mus musculus [36]): Survivals 10/10
